From patent US10899754B2, “Modulators of indoleamine 2,3-dioxygenase” (GLAXOSMITHKLINE INTELLECTUAL PROPERTY DEVELOPMENT LIMITED, priority 2016, dated 2021) come the findings set out here.

Molecules are shown by their SMILES. Bounds are passed on as bounds.

Assay type in all cases: cell-based
Data set [1] has as its system human epithelial HeLa cells. Nature of the data set: HeLa cytotoxicity assay (CellTiter-Glo). The note with it: pCC50. Summed up: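 HeLa cells (5,000/well) stimulated with 10 nM IFN-γ, exposed to 11-point 3-fold compound dilutions for 2 days at 37 °C; viability by CellTiter-Glo ATP luminescence. Normalized to cell-free (100% cytotoxicity) and stimulated-cell DMSO (0%) controls; four-parameter fit gives pCC50.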
In general terms: ATP-based viability assays read luminescence as a measure of living cells.

The subject of data set [2] is human peripheral blood mononuclear cells (PBMC). Nature of the data set: PBMC cytotoxicity assay (CellTiter-Glo). The note with it: 2 days, pCC50. Summed up: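 Human PBMC (50,000 cells/well) stimulated with IFN-γ 100 ng/ml and LPS 50 ng/ml were exposed to 11-point 3-fold compound dilutions for 2 days at 37 °C, 5% CO2. Viability read by CellTiter-Glo ATP luminescence and normalized to no-cell and stimulated-DMSO controls. XC50 derived by four-parameter fit.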

Data set [3] addresses T1, indoleamine 2, 3-dioxygenase (IDO1) (Homo sapiens, UniProt P14902). Nature of the data set: IDO1 HeLa RapidFire MS assay (kynurenine detection by mass spectrometry). The note with it: HeLa cells, pIC50, read-out: IDO1_HELA_PXC50 (converted). Details: to induce the expression of indoleamine 2, 3-dioxygenase (IDO1). Summed up: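 Compound potency reported as pIC50 from kynurenine/internal-standard ratio (RapidFire MS) in supernatant of IFN-γ-induced (10 nM) HeLa cells, 5,000 per well, after 2 days' treatment with 11-point dilutions. Cytotoxicity in the same format by luminescent ATP detection, reported as pCC50.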

The target of data set [4] is T1, indoleamine 2, 3-dioxygenase (IDO1). Nature of the data set: IDO1 PBMC RapidFire MS assay (kynurenine detection by mass spectrometry). Also noted: to induce the expression of indoleamine 2, 3-dioxygenase (IDO1); host or cells: human PBMC stimulated with IFN-gamma and LPS. To be noted: human PBMC stimulated with IFN-γ and LPS, 2 days, pIC50, read-out: PBMC PXC50 (converted). Summed up:
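PBMCs (50,000 cells/well) stimulated with IFN-γ 100 ng/ml plus LPS 50 ng/ml, treated with 11-point 3-fold compound series for 2 days at 37° C. Supernatant kynurenine measured by RapidFire MS, normalised to internal standard; parallel cytotoxicity by CellTiter-Glo luminescence; curves fitted for XC50.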

T1 sequence (P14902 whole entry): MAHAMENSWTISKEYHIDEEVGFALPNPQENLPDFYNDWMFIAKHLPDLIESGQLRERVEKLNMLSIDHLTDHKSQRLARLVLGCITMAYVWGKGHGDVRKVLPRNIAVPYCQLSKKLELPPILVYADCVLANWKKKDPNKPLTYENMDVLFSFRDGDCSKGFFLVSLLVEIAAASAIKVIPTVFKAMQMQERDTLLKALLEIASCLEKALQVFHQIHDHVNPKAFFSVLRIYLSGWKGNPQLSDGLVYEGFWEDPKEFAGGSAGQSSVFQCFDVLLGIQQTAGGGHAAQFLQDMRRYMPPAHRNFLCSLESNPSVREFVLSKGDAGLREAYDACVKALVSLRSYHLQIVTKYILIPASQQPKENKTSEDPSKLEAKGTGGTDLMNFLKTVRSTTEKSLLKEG

On to `CC(C)CN(c1ccc(C(C)CC(=O)O)cc1NC1=N[C@@H](C(F)(F)F)CS1)C1CCCCC1` (stereo partly drawn) [example 154, 3-{4-[cyclohexyl(2-methylpropyl)amino]-3-{[(4S)-4-(trifluoromethyl)-4,5-dihydro-1,3-thiazol-2-yl]amino}phenyl}butanoic acid], for which the HELA_IDO1_TOX_PXC50 in data set [1] was <5. In data set [2], the “PBMC TOX PXC50” value is <5. Moreover, the IC50 in data set [3] is 0.0316 µM; in data set [4], 0.02 µM.
As for `CC(C)CN(CC(C)C)c1ccc(C2CC2C(=O)O)cc1Nc1nc(Cl)ns1` (stereo not drawn) [example 177, (1R*,2R**)-2-{4-[bis(2-methylpropyl)amino]-3-[(3-chloro-1,2,4-thiadiazol-5-yl)amino]phenyl}cyclo-propane-1-carboxylic acid], the HELA_IDO1_TOX_PXC50 in data set [1] is <5. Besides, the “PBMC TOX PXC50” value in data set [2] is <5. The IC50 in data set [3] is 0.158 µM; in data set [4] it was 0.0316 µM.
On to `CC(C)CN(c1ccc(C(C)CC(=O)O)cc1NC1CCC(C)CC1)C1CCCCC1` (stereo not shown) [example 158, 3-{4-[cyclohexyl(2-methylpropyl)amino]-3-[(4-methylcyclohexyl)ami-no]phenyl}butanoic acid], for which, in data set [1], the HELA_IDO1_TOX_PXC50 is on record as <5. The “PBMC TOX PXC50” value in data set [2] was <5. Besides, the IC50 in data set [3] is 1 µM; in data set [4], 0.631 µM.
Take `CC(C)CN(c1ccc(C(C)OCC(=O)O)cc1Nc1nc2ccccc2[nH]1)C1CCCCC1` (stereo not shown) [example 173, 2-(1-{3-[(1H-1,3-benzodiazol-2-yl)amino]-4-[cyclohexyl(2-methylpropyl)amino]phenyl}ethoxy)acetic acid]: the HELA_IDO1_TOX_PXC50 in data set [1] is listed as <5. Besides, the “PBMC TOX PXC50” value in data set [2] is given as <5. The values for the IC50 in data set [3] and in data set [4] were 0.02 µM and 0.0251 µM, respectively.
As to `CC(C)CN(CC(C)C)c1ccc(C(C)CC(=O)O)cc1NC1CCCCC1` (stereo not shown) [example 157, 3-{4-[bis(2-methylpropyl)amino]-3-(cyclohexylamino)phe-nyl}butanoic acid], the HELA_IDO1_TOX_PXC50 in data set [1] is given as <5. Moreover, in data set [2], the “PBMC TOX PXC50” value was <5. Moreover, the IC50 in data set [3] was 1 µM; in data set [4], 0.794 µM.
Turning to `CC(C)CN(c1ccc([C@H](C)CC(=O)O)cc1NC1CCCC(C)(C)C1)C1CCCCC1` (stereo partly drawn) [example 183, (3R)-3-{4-[cyclohexyl(2-methylpropyl)amino]-3-[(3,3-dimethylcyclohexyl)ami-no]phenyl}butanoic acid], the HELA_IDO1_TOX_PXC50 in data set [1] is recorded as <5. Also, in data set [2], the “PBMC TOX PXC50” value is <5. Moreover, the figures for the IC50 in data set [3] and in data set [4] were 0.398 µM and 0.2 µM, respectively.
Regarding `Cc1nnc(Nc2cc(-c3ccccc3C(=O)O)ccc2N(CC(C)C)CC(C)C)s1` [example 298, 4′-[bis(2-methylpropyl)amino]-3′-[(5-methyl-1,3,4-thiadiazol-2-yl)amino]-[1,1′-biphenyl]-2-carboxylic acid], the HELA_IDO1_TOX_PXC50 in data set [1] is on record as <5. Further, the “PBMC TOX PXC50” value in data set [2] was <5. Also, the IC50 in data set [3] is 0.251 µM; in data set [4], 0.0398 µM.
For the compound `CC[C@H](CC(=O)O)c1ccc(N(CC(C)C)C2CCCCC2)c(Nc2nc(C(F)(F)F)ns2)c1` [Example 38, (R)-3-(4-(cyclohexyl(isobutyl)amino)-3-((3-(trifluoromethyl)-1,2,4-thiadiazol-5-yl)amino)phenyl)pentanoic Acid], the HELA_IDO1_TOX_PXC50 in data set [1] was <5. In data set [2], the “PBMC TOX PXC50” value is on record as <5. Moreover, the IC50 in data set [3] was 0.002 µM; in data set [4], 0.000794 µM.
On to `CC(C)CN(c1ccc([C@H](C)CC(=O)O)cc1NC1CCC1)C1CCCCC1` [example 181, (3R)-3-[3-(cyclobutylamino)-4-[cyclohexyl(2-methylpropyl)amino]phenyl]butanoic acid], for which, in data set [1], the HELA_IDO1_TOX_PXC50 is recorded as <5. Besides, in data set [2], the “PBMC TOX PXC50” value is <5. Also, the IC50 is 0.316 µM in data set [3] and 0.158 µM in data set [4].
`CC(C)CN(CC(C)C)c1ccc(C2CC2C(=O)O)cc1Nc1nc(C(F)(F)F)ns1` (stereo not shown) [example 174, 2-{4-[bis(2-methylpropyl)amino]-3-{[3-(trifluoromethyl)-1,2,4-thiadiazol-5-yl]amino}phenyl}cyclo-propane-1-carboxylic acid]: the HELA_IDO1_TOX_PXC50 in data set [1] is reported as <5. The “PBMC TOX PXC50” value in data set [2] is listed as <5. The IC50 in data set [3] and in data set [4] was 0.0126 µM each time.
As for `CC(C)CN(c1ccc([C@H](C)CC(=O)O)cc1Nc1cnc(Cl)cn1)[C@H]1CC[C@H](O)CC1` [Example 45, (R)-3-(3-((5-chloropyrazin-2-yl)amino)-4-(((1r,4R)-4-hydroxycyclohexyl) (isobutyl)amino)phenyl)butanoic Acid], the HELA_IDO1_TOX_PXC50 in data set [1] is <5. Further, the “PBMC TOX PXC50” value in data set [2] is given as <5. Besides, the IC50 in data set [3] was 0.00398 µM; in data set [4] it was 0.00126 µM.
Take `CNC(=O)N1CCC(N(CC(C)C)c2ccc([C@H](C)CC(=O)O)cc2Nc2nc(C(F)(F)F)ns2)CC1` [example 262, (3R)-3-(4-{[1-(methylcarbamoyl)piper-idin-4-yl](2-methylpropyl)amino}-3-{[3-(trifluoromethyl)-1,2,4-thiadiazol-5-yl]amino}phenyl)butanoic acid]: in data set [1], the HELA_IDO1_TOX_PXC50 is recorded as <5. In addition, the “PBMC TOX PXC50” value in data set [2] was <5. Moreover, the results for the IC50 in data set [3] and in data set [4] were 0.1 µM and 0.02 µM, respectively.
As for `CC(C)CN(c1ccc([C@H](C)CC(=O)O)cc1Nc1cnc(C#N)cn1)C1CCOCC1` [Example 19, (R)-3-(3-((5-cyanopyrazin-2-yl)amino)-4-(isobutyl(tetrahydro-2H-pyran-4-yl)amino)phenyl)butanoic Acid], the HELA_IDO1_TOX_PXC50 in data set [1] is reported as <5. Also, the “PBMC TOX PXC50” value in data set [2] is given as <5. In addition, the IC50 in data set [3] is 0.00501 µM; in data set [4] it was 0.00251 µM.
`CC(C)CN(c1ccc([C@H](C)Cc2nnn[nH]2)cc1Nc1nc(Cl)ns1)C1CCCCC1` [Example 102, (R)-4-(1-(1H-tetrazol-5-yl)propan-2-yl)-N^2-(3-chloro-1,2,4-thiadiazol-5-yl)-N^1-cyclohexyl-N^1-isobutylbenzene-1,2-diamine]: the HELA_IDO1_TOX_PXC50 in data set [1] is recorded as <5. Besides, the “PBMC TOX PXC50” value in data set [2] is <5. The IC50 in data set [3] was 0.00794 µM; in data set [4], 0.00501 µM.
Consider `CC(C)CN(c1ccc(C(C)CC(=O)O)cc1NC1=N[C@H](C)CO1)C1CCCCC1` (stereo partly drawn) [example 151, 3-{4-[cyclohexyl(2-methylpropyl)amino]-3-{[(4R)-4-methyl-4,5-dihydro-1,3-oxazol-2-yl]amino}phenyl}butanoic acid], for which, in data set [1], the HELA_IDO1_TOX_PXC50 is reported as <5. In addition, in data set [2], the “PBMC TOX PXC50” value was <5. Moreover, the IC50 was 2 µM in data set [3] and 2.51 µM in data set [4].
For the compound `CC(C)CN(c1ccc([C@H](C)CC(=O)O)cc1Nc1nc(C(F)(F)F)ns1)C1CCN(C(=O)OC(C)C)CC1` [Example 65, (R)-3-(4-(isobutyl(1-(isopropoxycarboxyl)piperidin-4-yl)amino)-3-((3-(trifluoromethyl)-1,2,4-thiadiazol-5-yl)amino)phenyl)butanoic Acid], the HELA_IDO1_TOX_PXC50 in data set [1] is reported as <5. The “PBMC TOX PXC50” value in data set [2] is reported as <5. Moreover, the IC50 in data set [3] is 0.00398 µM; in data set [4], 0.00126 µM.
`CC(C)CN(c1cc(F)c([C@H](C)CC(=O)O)cc1Nc1ccc(Cl)nc1)C1CCOCC1` [Example 37, (R)-3-(5-((6-chloropyridin-3-yl)amino)-2-fluoro-4-(isobutyl(tetrahydro-2H-pyran-4-yl)amino)phenyl)butanoic Acid]: the HELA_IDO1_TOX_PXC50 in data set [1] was <5. In addition, the “PBMC TOX PXC50” value in data set [2] is <5. Further, the IC50 is 0.00501 µM in data set [3] and 0.00126 µM in data set [4].
Consider `CC(C)CN(c1ccc(C(C)CC(=O)O)cc1NC1=NC(=O)[C@@H](c2ccccc2)N1)C1CCCCC1` (stereo partly drawn) [example 155, 3-{4-[cyclohexyl(2-methylpropyl)amino]-3-{[(5R)-4-oxo-5-phenyl-4,5-dihydro-1H-imidazol-2-yl]amino}phenyl}butanoic acid], for which the HELA_IDO1_TOX_PXC50 in data set [1] is listed as <5. For the same compound, the “PBMC TOX PXC50” value in data set [2] was <5. The IC50 in data set [3] was 1 µM; in data set [4], 1.58 µM.
`CC(C)CN(c1ccc(-c2ccccc2C(=O)O)cc1Nc1cccc(Cl)n1)C1CCCCC1` [example 266, 3′-[(6-chloropyridin-2-yl)amino]-4′-[cyclohexyl(2-methylpropyl)amino]-[1,1′-biphenyl]-2-carboxylic acid]: in data set [1], the HELA_IDO1_TOX_PXC50 is recorded as <5. In addition, the “PBMC TOX PXC50” value in data set [2] was <5. The results for the IC50 in data set [3] and in data set [4] were 0.2 µM and 0.0631 µM, respectively.
